{"source": "patent US11530197B2", "about": "“Analogs for the treatment of disease” (Insilico Medicine IP Limited, priority 2021, dated 2022)", "key": {"[1]": {"assay": "Metabolic stability in human liver microsomes;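 also: NADPH-supplemented human liver microsomes sampled at 0, 5, 10, 20, 30 and 60 min, parent compound quantified by LC-MS/MS, intrinsic clearance from first-order decay, no-cofactor incubation as control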", "type": "in vitro ADME", "details": "LM Clint; 1 μM test compound, 0.5 mg protein/mL microsome, 37° C., up to 60 min", "description": "Test Compound an Control Working Solution Preparation: Working solution: 5 μL of compound and control stock solution (10 mM in dimethyl sulfoxide (DMSO)) were diluted with 495 µL of acetonitrile (ACN) (intermediate solution concentration: 100 μM, 99% ACN).\nPreparation Procedure: The appropriate amount of NADPH powder was weighed and diluted into a 10 mM MgCl2 solution (working solution concentration: 10 unit/mL; final concentration in reaction system: 1 unit/mL).\nPreparation Procedure: The appropriate concentrations of microsome working solutions were prepared in 100 mM potassium phosphate buffer.\nStop Solution Preparation: Cold (4° C.) acetonitrile (ACN) containing 200 ng/mL tolbutamide and 200 ng/mL labetalol as internal standards (IS) was used as the stop solution.\nDilute liver microsomes to 0.56 mg/mL in 100 mM phosphate buffer.\nTransfer 445 μL microsome working solutions (0.56 mg/mL) into pre-warmed ‘Incubation’ plates T60 and NCF60, Then pre-incubate ‘Incubation’ plates T60 and NCF60 for 10 min at 37° C. with constant shaking. Transfer 54 μL liver microsomes to blank plate, then add 6 μL NAPDH cofactor to blank plate, and then add 180 μL quenching solution to blank plate.\n2.5.4 Add 5 μL compound working solution (100 μM) into ‘incubation’ plates (T60 and NCF60) containing microsomes and mix 3 times thoroughly.\nFor the NCF60 plate, add 50 μL of buffer and mix 3 times thoroughly. Start timing; plate will be incubated at 37° C. for 60 min while shaking.\nFor the T60 plate, mix 3 times thoroughly, and immediately remove 54 μL mixture for the 0-min time point to ‘Quenching’ plate. Then add 44 μL NAPDH cofactor to incubation plate (T60). Start timing; plate will be incubated at 37° C. for 60 min while shaking.\nAt 5, 10, 20, 30, and 60 min, add 180 μL quenching solution to ‘Quenching’ plates, mix once, and serially transfer 60 μL sample from T60 plate per time point to ‘Quenching’ plates.\nFor NCF60: mix once, and transfer 60 μL sample from the NCF60 incubation to ‘Quenching’ plate containing quenching solution at the 60-min time point.\nAll sampling plates are shaken for 10 min, then centrifuged at 4000 rpm for 20 minutes at 4° C.\nTransfer 80 μL supernatant into 240 μL HPLC water, and mix by plate shaker for 10 min.\nEach bioanalysis plate was sealed and shaken for 10 minutes prior to LC-MS/MS analysis.\nThe equation of first order kinetics was used to calculate T½ and Intrinsic clearance (CLint mic) in (L/min/mg)."}, "[2]": {"system": "Collagen I (COL1A1) in LX-2 cells", "assay": "Collagen and Alpha-SMA in LX-2 (Western blot after TGF-β stimulation);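 also: cells serum-starved in 0.4% FBS before treatment, lysates analysed by Western blot, DMSO-only wells as blank and TGF-β alone as maximal induction control, three independent experiments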", "type": "cell-based", "details": "Homo sapiens, 4 ng/ml TGF-β for 48 hours, Collagen I normalized to GAPDH", "description": "3 ml of 0.25% Trypsin-EDTA solution was then added and cells were incubated at 37° C. for 5 min for each T150-flask. 7 ml of culture medium was added to stop trypsinization. The cells were centrifuged at 300×g for 5 min. Supernatant medium was discarded and cells were re-suspended with fresh culture medium. The cells were counted with Cell viability analyzer. 5.0E+05 cells/well were seeded into 6-well plate containing 2.0 mL of culture medium. The cells were cultured overnight at 37° C. The next day, the complete medium was replaced with medium with 0.4% FBS for starvation. […] In parallel, medium containing only DMSO and TGF-β was used as blank control and positive control, respectively. TGF-β induction was used as maximum induction positive control. The culture medium was discarded at the end of induction. Cells were washed once using ice-cold DPBS. RIPA buffer was added to lyse the cells for 20 min. The cells were then scraped off the culture plate, collected in a tube and centrifuged. The supernatant was stored at −80° C. The total amount of protein in the lysate was determined using BCA Protein Assay kit. The cell treatment of fibrosis assay was performed in three independent experiments for each compound.\nAll the lysate samples were adjusted to the same protein concentration with RIPA buffer after BCA assay. […] The denatured samples were used for electrophoresis. Western blot was performed according to the standard protocols. The same volume of protein was loaded onto 4-12% Bis-Tris gel. Duplicate lysates of samples were loaded onto two gels. The gels were run for 0.5 h at 80 V and 120 V for another 1 h. When the electrophoresis was completed, the gels containing target protein Collagen I (COL1A1) were transferred onto NC membrane using Trans-Blot Electrophoretic Transfer Cell for 90 min at 100 V. The iBlot™ 2 Gel Transfer Device was used to transfer α-SMA and GAPDH at 20 V for 7 min. All the membranes were blocked in TBST buffer with 5% nonfat dry milk in at RT for 1 h and then incubated with primary antibody anti-COL1A1 and anti-α-SMA in TBST buffer containing 5% BSA at 4° C. overnight. For GAPDH detection, the membrane with α-SMA immunoblots were stripped with Restore™ Western Blot Stripping Buffer after detection. And the membranes were re-blocked and then re-probed with primary antibody anti-GAPDH antibody at room temperature (RT) for 2 h. After incubation with primary antibodies, membranes were washed with TBST, then incubated with the secondary antibody at RT for 1 h. Blots were visualized using the instrument Image Quant LAS-4000. The chemiluminescent signals derived from ECL Western blotting reagents were captured. The bands integrated intensity from 16-bit blot images was used for quantitation with the software (1D component of ImageQuant TL). The quantification raw data of the two duplicated gels was obtained from ImageQuant TL. Collagen I and α-SMA proteins expression level was normalized to GAPDH for each gel. The average normalization data of the two duplicated gels was calculated and applied to calculate IC50 using an equation for a sigmoidal dose response (variable slope) of GraphPad™ Prism software. The equation is Y=Bottom+(Top-Bottom)/(1+10^((Log IC50−X)*Hillslope). Note: X is the logarithm of compound concentration, Y is the average normalization data"}, "TNIK(h)": {"biological_target": "TNIK(h) (Homo sapiens (Human), UniProt Q9UKE5)", "sequence (Q9UKE5 whole entry)": "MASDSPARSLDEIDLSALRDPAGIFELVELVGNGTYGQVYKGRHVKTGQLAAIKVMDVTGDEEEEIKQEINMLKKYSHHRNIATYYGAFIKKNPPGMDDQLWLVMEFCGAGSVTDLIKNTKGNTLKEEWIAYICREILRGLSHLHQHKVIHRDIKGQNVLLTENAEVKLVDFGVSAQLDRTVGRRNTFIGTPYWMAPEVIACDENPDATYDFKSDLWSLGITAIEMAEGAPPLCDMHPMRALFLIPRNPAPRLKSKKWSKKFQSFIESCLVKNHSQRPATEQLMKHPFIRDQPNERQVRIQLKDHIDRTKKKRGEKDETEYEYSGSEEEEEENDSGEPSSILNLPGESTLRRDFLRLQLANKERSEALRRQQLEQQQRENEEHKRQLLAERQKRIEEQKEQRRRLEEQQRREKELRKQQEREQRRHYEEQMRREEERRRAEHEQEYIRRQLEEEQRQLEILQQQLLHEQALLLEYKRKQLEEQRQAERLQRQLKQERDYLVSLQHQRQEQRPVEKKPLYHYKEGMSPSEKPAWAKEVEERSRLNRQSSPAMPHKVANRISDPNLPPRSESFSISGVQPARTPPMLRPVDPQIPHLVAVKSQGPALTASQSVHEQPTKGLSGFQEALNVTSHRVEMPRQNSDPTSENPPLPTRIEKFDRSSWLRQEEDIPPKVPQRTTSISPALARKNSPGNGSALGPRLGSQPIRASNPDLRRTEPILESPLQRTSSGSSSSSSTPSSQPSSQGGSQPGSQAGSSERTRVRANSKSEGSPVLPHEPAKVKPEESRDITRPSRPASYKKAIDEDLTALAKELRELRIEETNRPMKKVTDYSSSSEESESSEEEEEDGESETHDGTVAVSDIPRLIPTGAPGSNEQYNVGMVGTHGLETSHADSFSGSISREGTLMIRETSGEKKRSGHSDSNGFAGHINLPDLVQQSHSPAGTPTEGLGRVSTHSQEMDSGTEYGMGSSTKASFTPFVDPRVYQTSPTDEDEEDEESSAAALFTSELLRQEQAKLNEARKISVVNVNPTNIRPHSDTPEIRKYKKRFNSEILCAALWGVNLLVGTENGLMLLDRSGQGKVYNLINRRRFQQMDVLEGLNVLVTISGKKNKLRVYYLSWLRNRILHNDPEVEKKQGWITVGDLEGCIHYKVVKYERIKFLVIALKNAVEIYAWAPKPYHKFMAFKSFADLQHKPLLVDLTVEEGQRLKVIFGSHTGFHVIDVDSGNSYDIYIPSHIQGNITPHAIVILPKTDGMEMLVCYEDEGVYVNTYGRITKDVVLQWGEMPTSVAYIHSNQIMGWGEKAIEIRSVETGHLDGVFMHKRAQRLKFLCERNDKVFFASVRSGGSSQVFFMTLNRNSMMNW", "assay": "TNIK Human STE Kinase Enzymatic Radiometric Assay;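 also: remaining kinase activity relative to DMSO control, compound added without preincubation, reaction started with ATP, IC50 from variable-slope sigmoidal dose-response fit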", "type": "biochemical", "details": "ATP 70 μM; 40 min at room temperature; read-out: TNIK (IC50)", "description": "(§1) The reaction is initiated by the addition of the Mg/ATP mix. After incubation for 40 minutes at room temperature, the reaction is stopped by the addition of phosphoric acid to a concentration of 0.5%.\nINCUBATION: 40 min at Room temperature\nCOMPOUND DILUTION SCHEME: All compounds supplied were prepared to a working stock of 50× final assay concentration in 100% DMSO. Where appropriate, more concentrated stocks were diluted manually to 50× using 100% DMSO. Compounds supplied as powders were reconstituted to a 10 mM stock in 100% DMSO before further dilution to 50×. ASSAY PROCEDURE: The required volume of the 50× stock of test compound was added to the assay before a reaction mix containing the enzyme and substrate was added. The reaction was initiated by the addition of ATP at the selected concentration. There was no pre-incubation of the compound with the enzyme/substrate mix prior to ATP addition. […] Results are expressed as kinase activity remaining, as a percentage of the DMSO control. This is calculated using the following formula:\n(§2) For IC50 determinations, data are analyzed using XLFit version 5.3 (ID Business Solutions). Sigmoidal dose-response (variable slope) curves are fit based on the mean result for each test concentration using non-linear regression analysis. Where the top and/or bottom of the curve fall >10% out with 100 and 0, respectively, either or both of these limits may be constrained at 100 and 0, provided that the QC criterion on R2 is met."}, "MAP4K4 (h)": {"biological_target": "MAP4K4 (h) (Homo sapiens (Human), UniProt O95819)", "sequence (O95819 whole entry)": "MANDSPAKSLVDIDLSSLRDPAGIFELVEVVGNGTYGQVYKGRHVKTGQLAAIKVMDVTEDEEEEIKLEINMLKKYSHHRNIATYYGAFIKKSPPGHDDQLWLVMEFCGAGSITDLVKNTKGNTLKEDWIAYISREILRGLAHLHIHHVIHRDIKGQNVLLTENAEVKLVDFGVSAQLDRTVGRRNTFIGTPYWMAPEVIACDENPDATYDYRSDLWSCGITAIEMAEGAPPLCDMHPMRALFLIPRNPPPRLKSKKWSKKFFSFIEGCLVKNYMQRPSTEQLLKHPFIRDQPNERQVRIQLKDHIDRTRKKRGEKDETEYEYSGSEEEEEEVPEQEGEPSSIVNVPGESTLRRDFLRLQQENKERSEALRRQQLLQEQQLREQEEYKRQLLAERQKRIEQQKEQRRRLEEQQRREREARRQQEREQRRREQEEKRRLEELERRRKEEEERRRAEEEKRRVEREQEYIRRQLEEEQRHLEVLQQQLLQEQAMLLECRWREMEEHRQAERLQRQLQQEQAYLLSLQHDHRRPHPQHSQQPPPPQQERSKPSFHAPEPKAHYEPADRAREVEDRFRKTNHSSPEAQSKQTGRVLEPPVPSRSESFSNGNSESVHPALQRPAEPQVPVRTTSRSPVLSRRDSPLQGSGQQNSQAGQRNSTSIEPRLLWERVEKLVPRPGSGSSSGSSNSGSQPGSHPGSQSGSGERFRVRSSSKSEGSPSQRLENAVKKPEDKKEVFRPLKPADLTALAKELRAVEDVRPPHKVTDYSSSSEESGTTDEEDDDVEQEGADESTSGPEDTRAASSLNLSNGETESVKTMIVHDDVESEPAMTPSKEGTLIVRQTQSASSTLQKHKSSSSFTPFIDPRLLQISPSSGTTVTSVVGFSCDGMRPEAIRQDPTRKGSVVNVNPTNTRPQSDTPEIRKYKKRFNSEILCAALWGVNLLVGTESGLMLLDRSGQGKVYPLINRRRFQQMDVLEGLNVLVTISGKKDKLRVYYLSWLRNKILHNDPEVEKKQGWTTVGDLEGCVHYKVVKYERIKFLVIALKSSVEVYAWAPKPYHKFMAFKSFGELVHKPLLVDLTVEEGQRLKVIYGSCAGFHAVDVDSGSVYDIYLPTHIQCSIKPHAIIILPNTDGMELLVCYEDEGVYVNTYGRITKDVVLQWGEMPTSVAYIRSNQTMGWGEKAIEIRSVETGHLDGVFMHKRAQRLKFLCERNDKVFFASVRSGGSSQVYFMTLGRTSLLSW", "assay": "MAP4K4 Human STE Kinase Enzymatic Radiometric Assay;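 also: kinase activity remaining relative to the DMSO control, IC50 derived from sigmoidal variable-slope curve fits, no preincubation of compound with enzyme before ATP start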", "type": "biochemical", "details": "ATP 200 μM; 40 min at room temperature", "description": "as §1\nINCUBATION: 40 min at Room temperature\nCOMPOUND DILUTION SCHEME: All compounds supplied were prepared to a working stock of 50× final assay concentration in 100% DMSO. Where appropriate, more concentrated stocks were diluted manually to 50× using 100% DMSO. Compounds supplied as powders were reconstituted to a 10 mM stock in 100% DMSO before further dilution to 50×.\nASSAY PROCEDURE: The required volume of the 50× stock of test compound was added to the assay before a reaction mix containing the enzyme and substrate was added. The reaction was initiated by the addition of ATP at the selected concentration. There was no pre-incubation of the compound with the enzyme/substrate mix prior to ATP addition.\nResults are expressed as kinase activity remaining, as a percentage of the DMSO control. This is calculated using the following formula: Mean of Sample Counts−Mean of Blank Counts/Mean of Control Counts\nas §2"}}, "data": [{"molecule": "CC(C)n1cnc(-c2ccc(F)cc2)c1-c1ccc(C(=O)Nc2ccc(N3CCN(C)CC3)cc2)o1", "note": "[Compound 121, 5-(4-(4-fluorophenyl)-1-isopropyl-1H-imidazol-5-yl)-N-(4-(4-methylpiperazin-1-yl)phenyl)furan-2-carboxamide]", "values": [{"measurement": "Human Liver Microsome (μM/min/mg)", "setting": "[1]", "result": "+ (>100 μM/min/mg as +)"}, {"measurement": "IC50", "setting": "[2]", "result": "< 0.1", "unit": "nM"}, {"measurement": "IC50", "setting": "TNIK(h)", "result": "1 to 12", "unit": "nM"}, {"measurement": "IC50", "setting": "MAP4K4 (h)", "result": "12 to 120", "unit": "nM"}]}, {"molecule": "CC(C)n1cnc(-c2ccc(F)cc2)c1-c1cccc(C(=O)Nc2ccc(N3CCN(CCO)CC3)cc2)n1", "note": "[Compound 128]", "values": [{"measurement": "Human Liver Microsome (μM/min/mg)", "setting": "[1]", "result": "+ (>100 μM/min/mg as +)"}, {"measurement": "IC50", "setting": "[2]", "result": "0.1 to 1", "unit": "nM"}, {"measurement": "IC50", "setting": "TNIK(h)", "result": "1 to 12", "unit": "nM"}, {"measurement": "IC50", "setting": "MAP4K4 (h)", "result": "1 to 12", "unit": "nM"}]}, {"molecule": "CN1CCN(c2ccc(NC(=O)c3c[nH]c(-c4c(-c5ccc(F)cc5)ncn4[C@H]4CC[C@H](O)CC4)n3)cc2)CC1", "note": "[Compound 159, 5′-(4-fluorophenyl)-3′-((1r,4r)-4-hydroxycyclohexyl)-N-(4-(4-methylpiperazin-1-yl)phenyl)-1H,3′H-[2,4′-biimidazole]-4-carboxamide]", "values": [{"measurement": "Human Liver Microsome (μM/min/mg)", "setting": "[1]", "result": "++ (10-100 μM/min/mg as ++)"}, {"measurement": "IC50", "setting": "[2]", "result": "0.1 to 1", "unit": "nM"}, {"measurement": "IC50", "setting": "TNIK(h)", "result": "1 to 12", "unit": "nM"}, {"measurement": "IC50", "setting": "MAP4K4 (h)", "result": "12 to 120", "unit": "nM"}]}, {"molecule": "CC(C)n1cnc(-c2ccc(Cl)cc2)c1-c1nc(C(=O)Nc2ccc(N3CCN(CCO)CC3)cc2)c[nH]1", "note": "[Compound 139, 5′-(4-chlorophenyl)-N-(4-(4-(2-hydroxyethyl)piperazin-1-yl)phenyl)-3′-isopropyl-1H,3′H-[2,4′-biimidazole]-4-carboxamide]", "values": [{"measurement": "Human Liver Microsome (μM/min/mg)", "setting": "[1]", "result": "++ (10-100 μM/min/mg as ++)"}, {"measurement": "IC50", "setting": "[2]", "result": "0.1 to 1", "unit": "nM"}, {"measurement": "IC50", "setting": "TNIK(h)", "result": "12 to 120", "unit": "nM"}, {"measurement": "IC50", "setting": "MAP4K4 (h)", "result": "> 120", "unit": "nM"}]}, {"molecule": "CC(C)n1cnc(-c2ccc(F)cc2)c1-c1ccc(C(=O)Nc2ccc(CCO)cc2)o1", "note": "[Compound 126, 5-(4-(4-fluorophenyl)-1-isopropyl-1H-imidazol-5-yl)-N-(4-(2-hydroxyethyl)phenyl)furan-2-carboxamide]", "values": [{"measurement": "Human Liver Microsome (μM/min/mg)", "setting": "[1]", "result": "+ (>100 μM/min/mg as +)"}, {"measurement": "IC50", "setting": "[2]", "result": "0.1 to 1", "unit": "nM"}, {"measurement": "IC50", "setting": "TNIK(h)", "result": "12 to 120", "unit": "nM"}, {"measurement": "IC50", "setting": "MAP4K4 (h)", "result": "12 to 120", "unit": "nM"}]}, {"molecule": "CC(C)n1cnc(-c2ccc(F)cc2)c1-c1cccc(C(=O)Nc2ccc(N3CCN(C)CC3)cc2)n1", "note": "[Compound 127]", "values": [{"measurement": "Human Liver Microsome (μM/min/mg)", "setting": "[1]", "result": "+ (>100 μM/min/mg as +)"}, {"measurement": "IC50", "setting": "[2]", "result": "0.1 to 1", "unit": "nM"}, {"measurement": "IC50", "setting": "TNIK(h)", "result": "1 to 12", "unit": "nM"}, {"measurement": "IC50", "setting": "MAP4K4 (h)", "result": "1 to 12", "unit": "nM"}]}, {"molecule": "O=C(Nc1ccc(N2CCNCC2)cc1)c1c[nH]c(-c2c(-c3ccc(F)cc3)ncn2CC(F)(F)F)n1", "note": "[Compound 167, 5′-(4-fluorophenyl)-N-(4-(piperazin-1-yl)phenyl)-3′-(2,2,2-trifluoroethyl)-1H,3′H-[2,4′-biimidazole]-4-carboxamide]", "values": [{"measurement": "Human Liver Microsome (μM/min/mg)", "setting": "[1]", "result": "++ (10-100 μM/min/mg as ++)"}, {"measurement": "IC50", "setting": "[2]", "result": "< 0.1", "unit": "nM"}, {"measurement": "IC50", "setting": "TNIK(h)", "result": "12 to 120", "unit": "nM"}, {"measurement": "IC50", "setting": "MAP4K4 (h)", "result": "> 120", "unit": "nM"}]}]}
